According to the NIST ThermoML archive (doi:10.1016/j.jct.2016.08.022):
Numbers after ± are expanded uncertainties.

Experiments:
[1] = Molar enthalpy of transition or fusion; settings: Crystal 2; Adiabatic calorimetry
[2] = for molar entropy: 101.33 kPa, Small (less than 1 g) adiabatic calorimetry

CCC(=O)O[C@]1(C(=O)COC(C)=O)CC[C@H]2[C@@H]3C[C@H](C)C4=CC(=O)C=C[C@]4(C)[C@H]3[C@@H](O)C[C@@]21C [Methylprednisolone aceponate]
Settings | Molar enthalpy of transition or fusion [kcal/mol]
[1] | 0.0526 ± 0.00143

[2]
Settings | molar entropy [J/K/mol]
5 K, Crystal 2 | 0.628 ± 0.052
10 K, Crystal 2 | 4.44 ± 0.28
15 K, Crystal 2 | 10.8 ± 0.67
20 K, Crystal 2 | 18.5 ± 1.1
25 K, Crystal 2 | 27.49 ± 0.52
30 K, Crystal 2 | 37.43 ± 0.64
40 K, Crystal 2 | 58.9 ± 0.98
50 K, Crystal 2 | 81.57 ± 0.73
60 K, Crystal 2 | 105 ± 0.9
70 K, Crystal 2 | 128.9 ± 1.1
80 K, Crystal 2 | 152.9 ± 1.3
90 K, Crystal 2 | 177.1 ± 1.4
100 K, Crystal 2 | 201.3 ± 1.6
110 K, Crystal 2 | 225.4 ± 1.8
120 K, Crystal 2 | 249.3 ± 2
130 K, Crystal 2 | 273.2 ± 2.1
140 K, Crystal 1 | 296.3 ± 2.3
150 K, Crystal 1 | 318.6 ± 2.5
160 K, Crystal 1 | 340.7 ± 2.6
170 K, Crystal 1 | 362.5 ± 2.8
180 K, Crystal 1 | 384.1 ± 3
190 K, Crystal 1 | 405.4 ± 3.1
200 K, Crystal 1 | 426.6 ± 3.3
210 K, Crystal 1 | 447.6 ± 3.4
220 K, Crystal 1 | 468.5 ± 3.6
230 K, Crystal 1 | 489.3 ± 3.7
240 K, Crystal 1 | 509.9 ± 3.9
250 K, Crystal 1 | 530.5 ± 4
260 K, Crystal 1 | 551 ± 4.2
270 K, Crystal 1 | 571.5 ± 4.3
280 K, Crystal 1 | 591.8 ± 4.5
290 K, Crystal 1 | 612.1 ± 4.6
298.15 K, Crystal 1 | 628.6 ± 4.7
300 K, Crystal 1 | 632.4 ± 4.8
310 K, Crystal 1 | 652.6 ± 4.9
320 K, Crystal 1 | 672.9 ± 5.1
330 K, Crystal 1 | 693.1 ± 5.2
340 K, Crystal 1 | 713.4 ± 5.4
346 K, Crystal 1 | 725.6 ± 5.5

Settings | Triple point temperature [K]
[2], Crystal 2, Adiabatic calorimetry | 131 ± 0.2
